Measurements reported in publication PMC12102759 (Protein Science : A Publication of the Protein Society, 2025).
Like-named read-outs stand apart in the source and are kept apart here.

Test system: G3BP1 NFT2
Format: binding, human
Conditions: library DMS-CoV, bait G3BP1 NFT2, prey N, listed as aa = residue placed at this position, column sums to 1

APRITFGGPSDSTGSN F6E (APRITEGGPSDSTGSN)
DMS PSSM value, F (position 6) (peptide APRITFGGPSDSTGSN): 0

RNAPRITFGGPSDSTG S12W (RNAPRITFGGPWDSTG)
DMS PSSM value, S (position 12) (peptide RNAPRITFGGPSDSTG): 0

APRITFGGPSDSTGSN R3D (APDITFGGPSDSTGSN)
DMS PSSM value, R (position 3) (peptide APRITFGGPSDSTGSN): 9.037e-5

RNAPRITFGGPSDSTG G16P (RNAPRITFGGPSDSTP)
DMS PSSM value, G (position 16) (peptide RNAPRITFGGPSDSTG): 0

APRITFGGPSDSTGSN F6K (APRITKGGPSDSTGSN)
DMS PSSM value, F (position 6) (peptide APRITFGGPSDSTGSN): 0

RNAPRITFGGPSDSTG G10F (RNAPRITFGFPSDSTG)
DMS PSSM value, G (position 10) (peptide RNAPRITFGGPSDSTG): 0

RNAPRITFGGPSDSTG G16A (RNAPRITFGGPSDSTA)
DMS PSSM value, G (position 16) (peptide RNAPRITFGGPSDSTG): 0

APRITFGGPSDSTGSN I4N (APRNTFGGPSDSTGSN)
DMS PSSM value, I (position 4) (peptide APRITFGGPSDSTGSN): 0

RNAPRITFGGPSDSTG T7V (RNAPRIVFGGPSDSTG)
DMS PSSM value, T (position 7) (peptide RNAPRITFGGPSDSTG): 0

APRITFGGPSDSTGSN P9S (APRITFGGSSDSTGSN)
DMS PSSM value, P (position 9) (peptide APRITFGGPSDSTGSN): 0.003052

APRITFGGPSDSTGSN T5R (APRIRFGGPSDSTGSN)
DMS PSSM value, T (position 5) (peptide APRITFGGPSDSTGSN): 0

RNAPRITFGGPSDSTG G9H (RNAPRITFHGPSDSTG)
DMS PSSM value, G (position 9) (peptide RNAPRITFGGPSDSTG): 0

APRITFGGPSDSTGSN G14S (APRITFGGPSDSTSSN)
DMS PSSM value, G (position 14) (peptide APRITFGGPSDSTGSN): 0.004295

RNAPRITFGGPSDSTG S14Q (RNAPRITFGGPSDQTG)
DMS PSSM value, S (position 14) (peptide RNAPRITFGGPSDSTG): 0

RNAPRITFGGPSDSTG G9E (RNAPRITFEGPSDSTG)
DMS PSSM value, G (position 9) (peptide RNAPRITFGGPSDSTG): 0

APRITFGGPSDSTGSN P2F (AFRITFGGPSDSTGSN)
DMS PSSM value, P (position 2) (peptide APRITFGGPSDSTGSN): 0.0008942

APRITFGGPSDSTGSN G14I (APRITFGGPSDSTISN)
DMS PSSM value, G (position 14) (peptide APRITFGGPSDSTGSN): 0.0004999

APRITFGGPSDSTGSN A1Y (YPRITFGGPSDSTGSN)
DMS PSSM value, A (position 1) (peptide APRITFGGPSDSTGSN): 0.04618

RNAPRITFGGPSDSTG G10S (RNAPRITFGSPSDSTG)
DMS PSSM value, G (position 10) (peptide RNAPRITFGGPSDSTG): 0

RNAPRITFGGPSDSTG P11H (RNAPRITFGGHSDSTG)
DMS PSSM value, P (position 11) (peptide RNAPRITFGGPSDSTG): 0

APRITFGGPSDSTGSN G8D (APRITFGDPSDSTGSN)
DMS PSSM value, G (position 8) (peptide APRITFGGPSDSTGSN): 0

APRITFGGPSDSTGSN T5G (APRIGFGGPSDSTGSN)
DMS PSSM value, T (position 5) (peptide APRITFGGPSDSTGSN): 0

APRITFGGPSDSTGSN G14W (APRITFGGPSDSTWSN)
DMS PSSM value, G (position 14) (peptide APRITFGGPSDSTGSN): 0.2634

RNAPRITFGGPSDSTG I6D (RNAPRDTFGGPSDSTG)
DMS PSSM value, I (position 6) (peptide RNAPRITFGGPSDSTG): 0

RNAPRITFGGPSDSTG A3F (RNFPRITFGGPSDSTG)
DMS PSSM value, A (position 3) (peptide RNAPRITFGGPSDSTG): 0

RNAPRITFGGPSDSTG D13T (RNAPRITFGGPSTSTG)
DMS PSSM value, D (position 13) (peptide RNAPRITFGGPSDSTG): 0

APRITFGGPSDSTGSN I4F (APRFTFGGPSDSTGSN)
DMS PSSM value, I (position 4) (peptide APRITFGGPSDSTGSN): 0

RNAPRITFGGPSDSTG D13A (RNAPRITFGGPSASTG)
DMS PSSM value, D (position 13) (peptide RNAPRITFGGPSDSTG): 0

RNAPRITFGGPSDSTG S14H (RNAPRITFGGPSDHTG)
DMS PSSM value, S (position 14) (peptide RNAPRITFGGPSDSTG): 0

APRITFGGPSDSTGSN S15P (APRITFGGPSDSTGPN)
DMS PSSM value, S (position 15) (peptide APRITFGGPSDSTGSN): 0.1504

RNAPRITFGGPSDSTG S14T (RNAPRITFGGPSDTTG)
DMS PSSM value, S (position 14) (peptide RNAPRITFGGPSDSTG): 0

APRITFGGPSDSTGSN G7H (APRITFHGPSDSTGSN)
DMS PSSM value, G (position 7) (peptide APRITFGGPSDSTGSN): 0

RNAPRITFGGPSDSTG P11V (RNAPRITFGGVSDSTG)
DMS PSSM value, P (position 11) (peptide RNAPRITFGGPSDSTG): 0

APRITFGGPSDSTGSN T5Y (APRIYFGGPSDSTGSN)
DMS PSSM value, T (position 5) (peptide APRITFGGPSDSTGSN): 0

APRITFGGPSDSTGSN T5N (APRINFGGPSDSTGSN)
DMS PSSM value, T (position 5) (peptide APRITFGGPSDSTGSN): 0

RNAPRITFGGPSDSTG A3G (RNGPRITFGGPSDSTG)
DMS PSSM value, A (position 3) (peptide RNAPRITFGGPSDSTG): 0.6104

RNAPRITFGGPSDSTG N2W (RWAPRITFGGPSDSTG)
DMS PSSM value, N (position 2) (peptide RNAPRITFGGPSDSTG): 0

APRITFGGPSDSTGSN P9N (APRITFGGNSDSTGSN)
DMS PSSM value, P (position 9) (peptide APRITFGGPSDSTGSN): 0

RNAPRITFGGPSDSTG P4G (RNAGRITFGGPSDSTG)
DMS PSSM value, P (position 4) (peptide RNAPRITFGGPSDSTG): 0

APRITFGGPSDSTGSN P9H (APRITFGGHSDSTGSN)
DMS PSSM value, P (position 9) (peptide APRITFGGPSDSTGSN): 0

RNAPRITFGGPSDSTG T7M (RNAPRIMFGGPSDSTG)
DMS PSSM value, T (position 7) (peptide RNAPRITFGGPSDSTG): 0

APRITFGGPSDSTGSN P9T (APRITFGGTSDSTGSN)
DMS PSSM value, P (position 9) (peptide APRITFGGPSDSTGSN): 0.01557

RNAPRITFGGPSDSTG G9Q (RNAPRITFQGPSDSTG)
DMS PSSM value, G (position 9) (peptide RNAPRITFGGPSDSTG): 0

RNAPRITFGGPSDSTG D13Y (RNAPRITFGGPSYSTG)
DMS PSSM value, D (position 13) (peptide RNAPRITFGGPSDSTG): 0

APRITFGGPSDSTGSN T5I (APRIIFGGPSDSTGSN)
DMS PSSM value, T (position 5) (peptide APRITFGGPSDSTGSN): 0.002921

RNAPRITFGGPSDSTG T15N (RNAPRITFGGPSDSNG)
DMS PSSM value, T (position 15) (peptide RNAPRITFGGPSDSTG): 0

RNAPRITFGGPSDSTG F8W (RNAPRITWGGPSDSTG)
DMS PSSM value, F (position 8) (peptide RNAPRITFGGPSDSTG): 0

APRITFGGPSDSTGSN T13Y (APRITFGGPSDSYGSN)
DMS PSSM value, T (position 13) (peptide APRITFGGPSDSTGSN): 0.001423

RNAPRITFGGPSDSTG R5E (RNAPEITFGGPSDSTG)
DMS PSSM value, R (position 5) (peptide RNAPRITFGGPSDSTG): 0.1354

APRITFGGPSDSTGSN P2Q (AQRITFGGPSDSTGSN)
DMS PSSM value, P (position 2) (peptide APRITFGGPSDSTGSN): 0.0005858

RNAPRITFGGPSDSTG S14G (RNAPRITFGGPSDGTG)
DMS PSSM value, S (position 14) (peptide RNAPRITFGGPSDSTG): 0

APRITFGGPSDSTGSN R3Q (APQITFGGPSDSTGSN)
DMS PSSM value, R (position 3) (peptide APRITFGGPSDSTGSN): 0.006747

RNAPRITFGGPSDSTG R5N (RNAPNITFGGPSDSTG)
DMS PSSM value, R (position 5) (peptide RNAPRITFGGPSDSTG): 0

APRITFGGPSDSTGSN I4D (APRDTFGGPSDSTGSN)
DMS PSSM value, I (position 4) (peptide APRITFGGPSDSTGSN): 0

RNAPRITFGGPSDSTG G10H (RNAPRITFGHPSDSTG)
DMS PSSM value, G (position 10) (peptide RNAPRITFGGPSDSTG): 0

RNAPRITFGGPSDSTG S14K (RNAPRITFGGPSDKTG)
DMS PSSM value, S (position 14) (peptide RNAPRITFGGPSDSTG): 0

RNAPRITFGGPSDSTG S12D (RNAPRITFGGPDDSTG)
DMS PSSM value, S (position 12) (peptide RNAPRITFGGPSDSTG): 0

RNAPRITFGGPSDSTG R5I (RNAPIITFGGPSDSTG)
DMS PSSM value, R (position 5) (peptide RNAPRITFGGPSDSTG): 0.009613

APRITFGGPSDSTGSN T5D (APRIDFGGPSDSTGSN)
DMS PSSM value, T (position 5) (peptide APRITFGGPSDSTGSN): 0

APRITFGGPSDSTGSN S10T (APRITFGGPTDSTGSN)
DMS PSSM value, S (position 10) (peptide APRITFGGPSDSTGSN): 0.01147

RNAPRITFGGPSDSTG P11S (RNAPRITFGGSSDSTG)
DMS PSSM value, P (position 11) (peptide RNAPRITFGGPSDSTG): 0

APRITFGGPSDSTGSN S12Y (APRITFGGPSDYTGSN)
DMS PSSM value, S (position 12) (peptide APRITFGGPSDSTGSN): 0.2998

APRITFGGPSDSTGSN S10L (APRITFGGPLDSTGSN)
DMS PSSM value, S (position 10) (peptide APRITFGGPSDSTGSN): 0.002677

APRITFGGPSDSTGSN G14D (APRITFGGPSDSTDSN)
DMS PSSM value, G (position 14) (peptide APRITFGGPSDSTGSN): 0.0004838

RNAPRITFGGPSDSTG F8A (RNAPRITAGGPSDSTG)
DMS PSSM value, F (position 8) (peptide RNAPRITFGGPSDSTG): 0

APRITFGGPSDSTGSN A1Q (QPRITFGGPSDSTGSN)
DMS PSSM value, A (position 1) (peptide APRITFGGPSDSTGSN): 0.01117

RNAPRITFGGPSDSTG D13F (RNAPRITFGGPSFSTG)
DMS PSSM value, D (position 13) (peptide RNAPRITFGGPSDSTG): 0

APRITFGGPSDSTGSN R3K (APKITFGGPSDSTGSN)
DMS PSSM value, R (position 3) (peptide APRITFGGPSDSTGSN): 0.0004363

APRITFGGPSDSTGSN S12Q (APRITFGGPSDQTGSN)
DMS PSSM value, S (position 12) (peptide APRITFGGPSDSTGSN): 0.01405

RNAPRITFGGPSDSTG T15G (RNAPRITFGGPSDSGG)
DMS PSSM value, T (position 15) (peptide RNAPRITFGGPSDSTG): 0

RNAPRITFGGPSDSTG A3R (RNRPRITFGGPSDSTG)
DMS PSSM value, A (position 3) (peptide RNAPRITFGGPSDSTG): 0

APRITFGGPSDSTGSN S12G (APRITFGGPSDGTGSN)
DMS PSSM value, S (position 12) (peptide APRITFGGPSDSTGSN): 0.0009188

RNAPRITFGGPSDSTG R5W (RNAPWITFGGPSDSTG)
DMS PSSM value, R (position 5) (peptide RNAPRITFGGPSDSTG): 0

APRITFGGPSDSTGSN T13I (APRITFGGPSDSIGSN)
DMS PSSM value, T (position 13) (peptide APRITFGGPSDSTGSN): 0.0005621

APRITFGGPSDSTGSN T13Q (APRITFGGPSDSQGSN)
DMS PSSM value, T (position 13) (peptide APRITFGGPSDSTGSN): 0.01432

RNAPRITFGGPSDSTG I6H (RNAPRHTFGGPSDSTG)
DMS PSSM value, I (position 6) (peptide RNAPRITFGGPSDSTG): 0
